# Test results from patent US10829446B2, “Aryl sulfonohydrazides” (MONASH UNIVERSITY, priority 2015, dated 2020).
# Legend:
# [1] = tested on: Eμ-Myc pre-leukemia pre-B cells; assay: Bioassay 6: proliferation curves of pre-B cells on OP9 feeder layer, Eμ-Myc; assay type: cell-based
# Description: Pre B cells are isolated from bone marrow according to the criterion: cell surface expression of B220, CD19, but not cKit or IgM. Proliferation curves of wild type pre-B cells and Ep-Myc pre-leukemia pre B cells are generated by counting cells cultured on OP9 cell feeder layer in the presence of the growth factor IL-7. Media is changed every two days and cells are passaged every 4 days.
# Wild type pre B cells = assay: Bioassay 8: cell cycle analysis (DNA content and Ki67); assay type: cell-based; conditions: for cells in G0 / cells in G1 / cells in G2/M / cells in S: 1 μM
# Experimental: Pre B cells are isolated from bone marrow according to the criterion: cell surface expression of B220, CD19, but not cKit or IgM. Pre-B cells are cultured on OP9 cells with IL7 in the presence of compounds at various concentrations. The stages of the cell cycle in cultured pre-B cells with and without treatment is analysed by flow cytometry using a stain for DNA content combined with the cell cycle marker Ki67 to enumerate the proportion of cells in different phases of the cell cycle.
compound,measurement,setting,value
Cc1cc(-c2ccccc2)cc(C(=O)NNS(=O)(=O)c2ccccc2)c1F [Compound 36],cumulative average cell number,"[1]; 0.2 μM, Day 4",373055
same,cumulative average cell number,"[1]; 0.2 μM, Day 8",1110631
same,cumulative average cell number,"[1]; 0.2 μM, Day 12",464403
same,cumulative average cell number,"[1]; 0.2 μM, Day 16",81501
same,cumulative average cell number,"[1]; 1 μM, Day 4",172777
same,cumulative average cell number,"[1]; 1 μM, Day 8",135815
same,cumulative average cell number,"[1]; 1 μM, Day 12",29983
same,cumulative average cell number,"[1]; 1 μM, Day 16",0
same,cumulative average cell number,"[1]; 5 μM, Day 4",79444
same,cumulative average cell number,"[1]; 5 μM, Day 8",33236
same,cumulative average cell number,"[1]; 5 μM, Day 12",0
same,cumulative average cell number,"[1]; 5 μM, Day 16",0
same,proliferation of pre-leukaemic B cell progenitors,"[1]; in words, compared to vehicle",inhibited
same,cells in G0,Wild type pre B cells; cultured for 4 days,14.5%
same,cells in G1,Wild type pre B cells; cultured for 4 days,55.9%
same,cells in G2/M,Wild type pre B cells; cultured for 4 days,12.7%
same,cells in S,Wild type pre B cells; cultured for 4 days,15.6%
same,cells in G0,Wild type pre B cells; cultured for 6 days,11.0%
same,cells in G1,Wild type pre B cells; cultured for 6 days,66.6%
same,cells in G2/M,Wild type pre B cells; cultured for 6 days,9.0%
same,cells in S,Wild type pre B cells; cultured for 6 days,8.3%
same,number of cells in S phase down-regulated,Wild type pre B cells; wild type pre-B cells,40%
